Legend:
Assay type in all cases: in vivo
[1] = tested on: common ragweed (Ambrosia artemisiifolia L., AMBEL); test: Greenhouse herbicide screen, post-emerge application, phytotoxicity rating; details: POST emergent, 14 days after application, scale 0-100
Description: (§1) A standard greenhouse herbicide activity screening system was used to evaluate the herbicidal efficacy and crop safety of these test compounds. Seven broadleaf weed species including redroot pigweed (Amaranthus retrofiexus, AMARE), velvetleaf (Abutilon theophrasti, ABUTH), sicklepod (Cassia obtusifolia, CASOB), ivyleaf morningglory (Ipomoea hederacea, IPOHE), lambsquarters (Chenopodium album, CHEAL), common ragweed (Ambrosia artemisiifolia L., AMBEL), and cocklebur (Xanthium strumarium, XANST) were used as test species. Four grass weed species including green foxtail (Setaria viridis, SETVI), barnyardgrass (Echinochloa crus-galli, ECHCG), johnsongrass (Sorghum halepense, SORHA), and large crabgrass (Digitaria sanguinalis, DIGSA) were also used. In addition, four crop species, field corn (Zea mays L., var. Dekalb 535, CORN), soybean (Glycine max L., var. Pella 86, SOY), upland rice (Oryza sp., var.Cocodrie, RICE) and wheat (Triticum aestivum L.) were included.
(§2) All plants were grown in 10 cm square plastic pots which were filled with a sandy loam soil mix. For pre-emerge tests, seeds were planted one day prior to application of the test compounds. For post-emerge tests, seeds were planted 8-21 days prior to the test to allow emergence and good foliage development prior to application of the test substances. At the time of the post-emerge application, plants of all species were usually at the 2-3 leaf stage of development.
(§3) All test compounds were dissolved in acetone and applied to the test units in a volume of 187 l/ha. Test materials were applied at rates ranging from 15 g ai/ha to 1000 g ai/ha using a track sprayer equipped with a TJ8001E even flow flat fan spray nozzle. Plants were arranged on a shelf so that the top of the canopy (post-emerge) or top of the soil surface (pre-emerge) was 40-45 cm below the nozzle. Pressurized air was used to force the test solution through the nozzle as it was mechanically advanced (via electrically driven chain drive) over the top of all test plants/pots. This application simulates a typical commercial field herbicide application.
(§4) Pre-emergence tests were top watered immediately after treatment to incorporate the test materials, then routinely top-watered for normal growth. Post-emerge test units were always bottom-watered.
(§5) At 14 days after application of the test materials, phytotoxicity ratings were recorded. A rating scale of 0-100 was used as previously described in Research Methods in Weed Science, 2nd edition, B. Truelove, Ed., Southern Weed Science Society, Auburn University, Auburn, Ala., 1977. Briefly, “0” corresponds to no damage and “100” corresponds to complete death of all plants in the test unit. This scale was used both to determine efficacy against weed species and damage to crop species. Herbicide activity data for various compounds of this invention, which are shown by compound No. in Tables 1-12, are shown in Tables 13 and 14.

[2] = tested on: velvetleaf (Abutilon theophrasti, ABUTH); test: as above; details: POST emergent, 14 days after application, scale 0-100
Description: as §1, §2, §3, §4, §5

[3] = tested on: barnyardgrass (Echinochloa crus-galli, ECHCG); test: as above; details: POST emergent, 14 days after application, scale 0-100
Description: as §1, §2, §3, §4, §5

[4] = tested on: green foxtail (Setaria viridis, SETVI); test: as above; details: POST emergent, 14 days after application, scale 0-100
Description: as §1, §2, §3, §4, §5

[5] = tested on: cocklebur (Xanthium strumarium, XANST); test: as above; details: POST emergent, 14 days after application, scale 0-100
Description: as §1, §2, §3, §4, §5

[6] = tested on: lambsquarters (Chenopodium album, CHEAL); test: as above; details: POST emergent, 14 days after application, scale 0-100
Description: as §1, §2, §3, §4, §5

[7] = tested on: sicklepod (Cassia obtusifolia, CASOB); test: as above; details: POST emergent, 14 days after application, scale 0-100
Description: as §1, §2, §3, §4, §5

[8] = tested on: johnsongrass (Sorghum halepense, SORHA); test: as above; details: POST emergent, 14 days after application, scale 0-100
Description: as §1, §2, §3, §4, §5

[9] = tested on: redroot pigweed (Amaranthus retrofiexus, AMARE); test: as above; details: POST emergent, 14 days after application
Description: as §1, §2, §3, §4, §5

[10] = tested on: ivyleaf morningglory (Ipomoea hederacea, IPOHE); test: as above; details: POST emergent, 14 days after application, scale 0-100
Description: as §1, §2, §3, §4, §5

[11] = tested on: large crabgrass (Digitaria sanguinalis, DIGSA); test: as above; details: POST emergent, 14 days after application, scale 0-100
Description: as §1, §2, §3, §4, §5

[12] = tested on: common ragweed (Ambrosia artemisiifolia L., AMBEL); test: Greenhouse herbicide screen, pre-emerge application, phytotoxicity rating; details: PRE emergent, 14 days after application, rating scale 0-100
Description: as §1, §2, §3, §4, §5

[13] = tested on: velvetleaf (Abutilon theophrasti, ABUTH); test: as above; details: PRE emergent, 14 days after application, rating scale 0-100
Description: as §1, §2, §3, §4, §5

[14] = tested on: barnyardgrass (Echinochloa crus-galli, ECHCG); test: as above; details: PRE emergent, 14 days after application, rating scale 0-100
Description: as §1, §2, §3, §4, §5

[15] = tested on: green foxtail (Setaria viridis, SETVI); test: as above; details: PRE emergent, 14 days after application, rating scale 0-100
Description: as §1, §2, §3, §4, §5

[16] = tested on: cocklebur (Xanthium strumarium, XANST); test: as above; details: PRE emergent, 14 days after application, rating scale 0-100
Description: as §1, §2, §3, §4, §5

[17] = tested on: lambsquarters (Chenopodium album, CHEAL); test: as above; details: PRE emergent, 14 days after application, rating scale 0-100
Description: as §1, §2, §3, §4, §5

[18] = tested on: sicklepod (Cassia obtusifolia, CASOB); test: as above; details: PRE emergent, 14 days after application, rating scale 0-100
Description: as §1, §2, §3, §4, §5

[19] = tested on: johnsongrass (Sorghum halepense, SORHA); test: as above; details: PRE emergent, 14 days after application, rating scale 0-100
Description: as §1, §2, §3, §4, §5

[20] = tested on: redroot pigweed (Amaranthus retrofiexus, AMARE); test: as above; details: PRE emergent, 14 days after application, rating scale 0-100
Description: as §1, §2, §3, §4, §5

[21] = tested on: ivyleaf morningglory (Ipomoea hederacea, IPOHE); test: as above; details: PRE emergent, 14 days after application, rating scale 0-100
Description: as §1, §2, §3, §4, §5

[22] = tested on: large crabgrass (Digitaria sanguinalis, DIGSA); test: as above; details: PRE emergent, 14 days after application, rating scale 0-100
Description: as §1, §2, §3, §4, §5

[23] = 63 g ai/ha, scale 0-100 (0 no damage, 100 complete death)

## COC(=NN=C(C(C)(C)C)C(C)(C)C)c1cc(-n2c(=O)cc(C(F)(F)F)n(C)c2=O)c(F)cc1Cl [Compound 5-6, 2-chloro-5-(3,6-dihydro-3-methyl-2,6-dioxo-4-(trifluoromethyl)-1(2H)-pyrimidinyl)-N-[1-(1,1-dimethylethyl)-2,2-dimethylpropylidene]-4-fluoro-benzenecarbohydrazonic Acid Methyl Ester]
[1]; 63 g ai/ha
  phytotoxicity rating AMBEL: 35
[1]; 250 g ai/ha
  phytotoxicity rating AMBEL: 99
[2]; 63 g ai/ha
  phytotoxicity rating ABUTH: 75
[2]; 250 g ai/ha
  phytotoxicity rating ABUTH: 95
[3]; 63 g ai/ha
  phytotoxicity rating ECHCO: 40
[3]; 250 g ai/ha
  phytotoxicity rating ECHCO: 90
[4]; 63 g ai/ha
  phytotoxicity rating SETVI: 95
[4]; 250 g ai/ha
  phytotoxicity rating SETVI: 100
[5]; 63 g ai/ha
  phytotoxicity rating XANST: 0
[5]; 250 g ai/ha
  phytotoxicity rating XANST: 10
[6]; 63 g ai/ha
  phytotoxicity rating CHEAL: 100
[6]; 250 g ai/ha
  phytotoxicity rating CHEAL: 100
[7]; 63 g ai/ha
  phytotoxicity rating CASOB: 40
[7]; 250 g ai/ha
  phytotoxicity rating CASOB: 98
[8]; 63 g ai/ha
  phytotoxicity rating SORHA: 25
[8]; 250 g ai/ha
  phytotoxicity rating SORHA: 100
[9]; [23]
  phytotoxicity rating AMARE: 100
[9]; 250 g ai/ha, scale 0-100
  phytotoxicity rating AMARE: 100
[10]; 63 g ai/ha
  phytotoxicity rating IPOHE: 35
[10]; 250 g ai/ha
  phytotoxicity rating IPOHE: 70
[11]; 63 g ai/ha
  phytotoxicity rating DIGSA: 20
[11]; 250 g ai/ha
  phytotoxicity rating DIGSA: 99
[12]; 63 g ai/ha
  phytotoxicity rating AMBEL: 35
[12]; 250 g ai/ha
  phytotoxicity rating AMBEL: 99
[13]; 63 g ai/ha
  phytotoxicity rating ABUTH: 75
[13]; 250 g ai/ha
  phytotoxicity rating ABUTH: 95
[14]; 63 g ai/ha
  phytotoxicity rating ECHCG: 40
[14]; 250 g ai/ha
  phytotoxicity rating ECHCG: 90
[15]; 63 g ai/ha
  phytotoxicity rating SETVI: 95
[15]; 250 g ai/ha
  phytotoxicity rating SETVI: 100
[16]; 63 g ai/ha
  phytotoxicity rating XANST: 0
[16]; 250 g ai/ha
  phytotoxicity rating XANST: 10
[17]; 63 g ai/ha
  phytotoxicity rating CHEAL: 100
[17]; 250 g ai/ha
  phytotoxicity rating CHEAL: 100
[18]; 63 g ai/ha
  phytotoxicity rating CASOB: 40
[18]; 250 g ai/ha
  phytotoxicity rating CASOB: 98
[19]; 63 g ai/ha
  phytotoxicity rating SORHA: 25
[19]; 250 g ai/ha
  phytotoxicity rating SORHA: 100
[20]; 63 g ai/ha
  phytotoxicity rating AMARE: 100
[20]; 250 g ai/ha
  phytotoxicity rating AMARE: 100
[21]; 63 g ai/ha
  phytotoxicity rating IPOHE: 35
[21]; 250 g ai/ha
  phytotoxicity rating IPOHE: 70
[22]; 63 g ai/ha
  phytotoxicity rating DIGSA: 20
[22]; 250 g ai/ha
  phytotoxicity rating DIGSA: 99

## Cn1c(C(F)(F)F)cc(=O)n(-c2cc(C(=O)NN=C(C(C)(C)C)C(C)(C)C)c(Cl)cc2F)c1=O [Compound 6-4, 2-chloro-5-(3,6-dihydro-3-methyl-2,6-dioxo-4-(trifluoromethyl)-1(2H)-pyrimidinyl)-4-fluoro-benzoic acid, 2-[1-(1,1-dimethylethyl)-2,2-dimethylpropylidene]hydrazide]
[1]; 63 g ai/ha
  phytotoxicity rating AMBEL: 75
[1]; 250 g ai/ha
  phytotoxicity rating AMBEL: 100
[2]; 63 g ai/ha
  phytotoxicity rating ABUTH: 100
[2]; 250 g ai/ha
  phytotoxicity rating ABUTH: 100
[3]; 63 g ai/ha
  phytotoxicity rating ECHCO: 80
[3]; 250 g ai/ha
  phytotoxicity rating ECHCO: 100
[4]; 63 g ai/ha
  phytotoxicity rating SETVI: 85
[4]; 250 g ai/ha
  phytotoxicity rating SETVI: 100
[5]; 63 g ai/ha
  phytotoxicity rating XANST: 100
[5]; 250 g ai/ha
  phytotoxicity rating XANST: 100
[6]; 63 g ai/ha
  phytotoxicity rating CHEAL: 100
[6]; 250 g ai/ha
  phytotoxicity rating CHEAL: 100
[7]; 63 g ai/ha
  phytotoxicity rating CASOB: 99
[7]; 250 g ai/ha
  phytotoxicity rating CASOB: 95
[8]; 63 g ai/ha
  phytotoxicity rating SORHA: 75
[8]; 250 g ai/ha
  phytotoxicity rating SORHA: 100
[9]; [23]
  phytotoxicity rating AMARE: 100
[9]; 250 g ai/ha, scale 0-100
  phytotoxicity rating AMARE: 100
[10]; 63 g ai/ha
  phytotoxicity rating IPOHE: 100
[10]; 250 g ai/ha
  phytotoxicity rating IPOHE: 100
[11]; 63 g ai/ha
  phytotoxicity rating DIGSA: 50
[11]; 250 g ai/ha
  phytotoxicity rating DIGSA: 70
[12]; 63 g ai/ha
  phytotoxicity rating AMBEL: 100
[12]; 250 g ai/ha
  phytotoxicity rating AMBEL: 100
[13]; 63 g ai/ha
  phytotoxicity rating ABUTH: 100
[13]; 250 g ai/ha
  phytotoxicity rating ABUTH: 100
[14]; 63 g ai/ha
  phytotoxicity rating ECHCG: 98
[14]; 250 g ai/ha
  phytotoxicity rating ECHCG: 100
[15]; 63 g ai/ha
  phytotoxicity rating SETVI: 100
[15]; 250 g ai/ha
  phytotoxicity rating SETVI: 100
[16]; 63 g ai/ha
  phytotoxicity rating XANST: 98
[16]; 250 g ai/ha
  phytotoxicity rating XANST: 100
[17]; 63 g ai/ha
  phytotoxicity rating CHEAL: 100
[17]; 250 g ai/ha
  phytotoxicity rating CHEAL: 100
[18]; 63 g ai/ha
  phytotoxicity rating CASOB: 98
[18]; 250 g ai/ha
  phytotoxicity rating CASOB: 100
[19]; 63 g ai/ha
  phytotoxicity rating SORHA: 99
[19]; 250 g ai/ha
  phytotoxicity rating SORHA: 100
[20]; 63 g ai/ha
  phytotoxicity rating AMARE: 100
[20]; 250 g ai/ha
  phytotoxicity rating AMARE: 100
[21]; 63 g ai/ha
  phytotoxicity rating IPOHE: 100
[21]; 250 g ai/ha
  phytotoxicity rating IPOHE: 100
[22]; 63 g ai/ha
  phytotoxicity rating DIGSA: 100
[22]; 250 g ai/ha
  phytotoxicity rating DIGSA: 100

Source: patent US6770597B2, “Benzohydrazide derivatives as herbicides and desiccant compositions containing them” (Ishihara Sangyo Kaisha, Ltd., priority 2002, dated 2004)
